Results reported in PubChem BioAssay AID330 (DTP/NCI, 2004).
Several values for one entry are separate records, joined by “and”; a condition that tells them apart may be missing. Identical values can stand only once. Inconclusive results and toxic doses are left out. Square brackets hold non-standard residues; d marks the D form. Peptide text beside a SMILES is read from it. * marks the point of attachment. Nle = CCCC[CH](N)C(=O)O; Cbz = O=C(OCc1ccccc1)*

Tested on: P388 leukemia ip, CD2F1 mice, survival T/C
Assay: NCI In Vivo Anticancer Drug Screen. Data for tumor model P388 Leukemia (intraperitoneal) in CD2F1 (CDF1) mice
Settings: endpoint: median survival time, higher = longer survival
Method in brief: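 Mice carrying the transplanted tumor received test compound or vehicle. Survival was recorded in each group, and the value is the treated-group measurement divided by that of the vehicle-treated control group.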

[1] = dose: 50.0 mg/kg/injection, schedule: Q01DX005 (ip), vehicle: saline with Tween-80
[2] = dose: 100.0 mg/kg/injection, schedule: Q01DX005 (ip), vehicle: saline with Tween-80
[3] = dose: 25.0 mg/kg/injection, schedule: Q01DX009 (ip), vehicle: saline with Tween-80
[4] = dose: 50.0 mg/kg/injection, schedule: Q01DX009 (ip), vehicle: saline with Tween-80
[5] = dose: 50.0 mg/kg/injection, schedule: Q01DX005 (ip), vehicle: Klucel (hydroxypropylcellulose) (HPC)
[6] = dose: 100.0 mg/kg/injection, schedule: Q01DX005 (ip), vehicle: Klucel (hydroxypropylcellulose) (HPC)
[7] = dose: 200.0 mg/kg/injection, schedule: Q01DX005 (ip), vehicle: Klucel (hydroxypropylcellulose) (HPC)
[8] = dose: 200.0 mg/kg/injection, schedule: Q01DX005 (ip), vehicle: saline with Tween-80
[9] = dose: 60.0 mg/kg/injection, schedule: Q01DX005 (ip), vehicle: saline with Tween-80
[10] = dose: 120.0 mg/kg/injection, schedule: Q01DX005 (ip), vehicle: saline with Tween-80
[11] = dose: 240.0 mg/kg/injection, schedule: Q01DX005 (ip), vehicle: saline with Tween-80
[12] = dose: 100.0 mg/kg/injection, schedule: Q01DX009 (ip), vehicle: saline with Tween-80
[13] = dose: 200.0 mg/kg/injection, schedule: Q01DX009 (ip), vehicle: saline with Tween-80

## C=CCNS(=O)(=O)c1ccccc1
dose: 25.0 mg/kg/injection, schedule: Q04DX003 (ip), vehicle: saline with Tween-80
  T/C: 102 % of control
dose: 50.0 mg/kg/injection, schedule: Q04DX003 (ip), vehicle: saline with Tween-80
  T/C: 107 % of control
dose: 100.0 mg/kg/injection, schedule: Q04DX003 (ip), vehicle: saline with Tween-80
  T/C: 94 % of control
dose: 200.0 mg/kg/injection, schedule: Q04DX003 (ip), vehicle: saline with Tween-80
  T/C: 107 % of control
dose: 400.0 mg/kg/injection, schedule: Q04DX003 (ip), vehicle: saline with Tween-80
  T/C: 107 % of control

## C/C(=N\NC(=S)N(C)C)c1ncc[nH]1
[1]
  T/C: 121 % of control
[2]
  T/C: 119 % of control

## CSc1ncnc2c1cnn2C1OC(CO)C(O)C1O (stereo not drawn)
dose: 6.25 mg/kg/injection, schedule: Q01DX009 (ip), vehicle: saline with Tween-80
  T/C: 104 % of control
dose: 12.5 mg/kg/injection, schedule: Q01DX009 (ip), vehicle: saline with Tween-80
  T/C: 98 % of control
[3]
  T/C: 116 % of control
[4]
  T/C: 100 % of control

## COc1ccc(C(C)=C2C=C(C(C)(C)C)C(=O)C(C(C)(C)C)=C2)cc1
dose: 50.0 mg/kg/injection, schedule: Q01DX005 (ip), vehicle: saline + Tween-80 + alcohol
  T/C: 111 % of control
dose: 100.0 mg/kg/injection, schedule: Q01DX005 (ip), vehicle: saline + Tween-80 + alcohol
  T/C: 109 % of control
dose: 200.0 mg/kg/injection, schedule: Q01DX005 (ip), vehicle: saline + Tween-80 + alcohol
  T/C: 113 % of control

## O=C(OC1(c2nccc3ccccc23)CCN(Cc2ccccc2)CC1)c1ccccc1
dose: 12.5 mg/kg/injection, schedule: Q01DX009 (ip), vehicle: saline
  T/C: 100 % of control
dose: 25.0 mg/kg/injection, schedule: Q01DX009 (ip), vehicle: saline
  T/C: 101 % of control
[4]
  T/C: 93 % of control
dose: 50.0 mg/kg/injection, schedule: Q01DX009 (ip), vehicle: saline
  T/C: 97 % of control

## CN(C)CCOC(=O)C1CC2(C1)CC(C(=O)OCCN(C)C)C2 (stereo not drawn)
[5]
  T/C: 95 % of control
[6]
  T/C: 97 % of control
[7]
  T/C: 103 % of control

## CN(C)P(=O)(OCC12C=C(OP(=O)(N(C)C)N(C)C)CC1(COP(=O)(N(C)C)N(C)C)C1CCC2C1)N(C)C (stereo not drawn)
dose: 60.0 mg/kg/injection, schedule: Q01DX005 (ip), vehicle: saline
  T/C: 101 % of control
dose: 120.0 mg/kg/injection, schedule: Q01DX005 (ip), vehicle: saline
  T/C: 98 % of control
dose: 240.0 mg/kg/injection, schedule: Q01DX005 (ip), vehicle: saline
  T/C: 102 % of control

## Cc1ccc(C(=S)N=P(c2ccccc2)(c2ccccc2)c2ccccc2)cc1
[1]
  T/C: 99 % of control
[2]
  T/C: 107 % of control
[8]
  T/C: 100 % of control

## CCCC12C=C(OC)C(=O)C=C1OC(c1ccc3c(c1)OCO3)C2C (stereo not drawn)
dose: 8.75 mg/kg/injection, schedule: Q01DX005 (ip), vehicle: Klucel (hydroxypropylcellulose) (HPC)
  T/C: 106 % of control
dose: 17.5 mg/kg/injection, schedule: Q01DX005 (ip), vehicle: Klucel (hydroxypropylcellulose) (HPC)
  T/C: 104 % of control
dose: 35.0 mg/kg/injection, schedule: Q01DX005 (ip), vehicle: Klucel (hydroxypropylcellulose) (HPC)
  T/C: 104 % of control

## COc1ccc(C2=NNC(=O)C3NC(=O)C(C#N)=C(C(=O)NN)C23c2ccc(OC)cc2)cc1 (stereo not drawn)
[9]
  T/C: 99 % of control
[10]
  T/C: 91 % of control
[11]
  T/C: 89 % of control

## Cc1ccc(N=C(c2ccccc2)N(O)c2ccc(Cl)cc2)cc1Cl
[5]
  T/C: 100 % of control
[6]
  T/C: 97 % of control
[7]
  T/C: 94 % of control

## CNC(C)=O
[12]
  T/C: 95 % of control
dose: 100.0 mg/kg/injection, schedule: Q04DX003 (ip), vehicle: saline
  T/C: 90 % of control
[13]
  T/C: 95 % of control
dose: 200.0 mg/kg/injection, schedule: Q04DX003 (ip), vehicle: saline
  T/C: 95 % of control
dose: 400.0 mg/kg/injection, schedule: Q01DX009 (ip), vehicle: saline with Tween-80
  T/C: 95 % of control
dose: 400.0 mg/kg/injection, schedule: Q04DX003 (ip), vehicle: saline
  T/C: 100 % of control

## Cc1ccc(N2CC(=O)N3CCCN3C(=O)C2)cc1
dose: 6.25 mg/kg/injection, schedule: Q01DX005 (ip), vehicle: saline with Tween-80
  T/C: 98 % of control
dose: 12.5 mg/kg/injection, schedule: Q01DX005 (ip), vehicle: saline with Tween-80
  T/C: 100 % of control
dose: 25.0 mg/kg/injection, schedule: Q01DX005 (ip), vehicle: saline with Tween-80
  T/C: 102 % of control

## OCC1OC(Oc2ccc(Cl)cc2)C(O)C1O (stereo not drawn)
dose: 50.0 mg/kg/injection, schedule: Q04DX002 (ip), vehicle: saline with Tween-80
  T/C: 105 % of control
dose: 100.0 mg/kg/injection, schedule: Q04DX002 (ip), vehicle: saline with Tween-80
  T/C: 98 % of control
dose: 200.0 mg/kg/injection, schedule: Q04DX002 (ip), vehicle: saline with Tween-80
  T/C: 112 % of control

## COc1cccc2c1C(=O)c1c(O)c3c(c(O)c1C2=O)CC(O)(/C(C)=N/NC(=O)c1cc(C(F)(F)F)cc(C(F)(F)F)c1)CC3OC1CC(N)C(O)C(C)O1 (stereo not drawn)
dose: 0.78 mg/kg/injection, schedule: Q01DX009 (ip), vehicle: water
  T/C: 151 % of control
dose: 1.56 mg/kg/injection, schedule: Q01DX009 (ip), vehicle: water
  T/C: 174 % of control
dose: 3.13 mg/kg/injection, schedule: Q01DX009 (ip), vehicle: water
  T/C: 160 % of control and 185 % of control
dose: 6.25 mg/kg/injection, schedule: Q01DX009 (ip), vehicle: water
  T/C: 93 % of control and 95 % of control

## O=C(O)c1ccc2c3c(ncnc13)-c1ccccc1C2=O
dose: 6.25 mg/kg/injection, schedule: Q01DX009 (ip), vehicle: Klucel (hydroxypropylcellulose) (HPC)
  T/C: 103 % of control
dose: 12.5 mg/kg/injection, schedule: Q01DX009 (ip), vehicle: Klucel (hydroxypropylcellulose) (HPC)
  T/C: 111 % of control and 96 % of control
dose: 25.0 mg/kg/injection, schedule: Q01DX009 (ip), vehicle: Klucel (hydroxypropylcellulose) (HPC)
  T/C: 112 % of control and 96 % of control
dose: 50.0 mg/kg/injection, schedule: Q01DX009 (ip), vehicle: Klucel (hydroxypropylcellulose) (HPC)
  T/C: 105 % of control and 109 % of control and 111 % of control
dose: 100.0 mg/kg/injection, schedule: Q01DX009 (ip), vehicle: Klucel (hydroxypropylcellulose) (HPC)
  T/C: 100 % of control
dose: 200.0 mg/kg/injection, schedule: Q01DX009 (ip), vehicle: Klucel (hydroxypropylcellulose) (HPC)
  T/C: 109 % of control

## c1cnc2c(c1)ccc1ncccc12
[5]
  T/C: 104 % of control
[6]
  T/C: 95 % of control
[7]
  T/C: 97 % of control

## CCCCC(NC(=O)OCc1ccccc1)C(=O)NC(CCSC)C(=O)O (stereo not drawn) (Cbz-[Nle]-Met-OH; configuration not given here)
[5]
  T/C: 96 % of control
[6]
  T/C: 111 % of control
[7]
  T/C: 101 % of control

## CC(C)C1=C(O)C2=C(C(=O)C1=O)C1(C)CCCC(C)(C)C1C(O)C2OC=O (stereo not drawn)
dose: 12.5 mg/kg/injection, schedule: Q01DX005 (ip), vehicle: Klucel (hydroxypropylcellulose) (HPC)
  T/C: 93 % of control
dose: 25.0 mg/kg/injection, schedule: Q01DX005 (ip), vehicle: Klucel (hydroxypropylcellulose) (HPC)
  T/C: 109 % of control
[5]
  T/C: 107 % of control
[6]
  T/C: 111 % of control

## COc1ccc2c(=O)c(S)coc2c1
[9]
  T/C: 100 % of control
[10]
  T/C: 101 % of control
[11]
  T/C: 100 % of control

## CCOc1c(C)cc(C(C)c2cc3c(cc2OC)OCO3)cc1C (stereo not drawn)
[1]
  T/C: 97 % of control
[2]
  T/C: 99 % of control
[8]
  T/C: 107 % of control

## OCCN(CCO)c1cc(/C=C/c2c3ccccc3cc3ccccc23)nc2ccccc12
[4]
  T/C: 89 % of control
[12]
  T/C: 93 % of control
[13]
  T/C: 92 % of control

## O=c1cc[nH]cc1[N+](=O)[O-]
dose: 12.5 mg/kg/injection, schedule: Q01DX009 (ip), vehicle: distilled water + Tween-80
  T/C: 93 % of control
dose: 25.0 mg/kg/injection, schedule: Q01DX009 (ip), vehicle: distilled water + Tween-80
  T/C: 98 % of control
[3]
  T/C: 99 % of control
dose: 50.0 mg/kg/injection, schedule: Q01DX009 (ip), vehicle: distilled water + Tween-80
  T/C: 108 % of control
[4]
  T/C: 98 % of control
dose: 100.0 mg/kg/injection, schedule: Q01DX009 (ip), vehicle: distilled water + Tween-80
  T/C: 101 % of control
[12]
  T/C: 105 % of control
dose: 100.0 mg/kg/injection, schedule: Q01DX009 (ip), vehicle: saline
  T/C: 104 % of control and 108 % of control
dose: 200.0 mg/kg/injection, schedule: Q01DX009 (ip), vehicle: distilled water + Tween-80
  T/C: 107 % of control
[13]
  T/C: 104 % of control
dose: 200.0 mg/kg/injection, schedule: Q01DX009 (ip), vehicle: saline
  T/C: 100 % of control and 92 % of control
